Peptide text beside a SMILES is read from it.
Columns and labels:
[1] = tested on: S288C, S288C PADH1-HGT1, S288C PADH1-PTR2; assay: γ-Glu-Val-Gly producing ability from Val-Gly of Hgt1p or Ptr2p overproducing strains; assay type: cell-based, Saccharomyces cerevisiae; conditions: 100 ppm Val-Gly in SD medium, 20 hours
Protocol: S288C PADH1-HGT1, Hgt1p overproducing strain obtained in Example 12, S288C PADH1-PTR2, Ptr2p overproducing strain obtained in Example 12, and their parental strain S288C were evaluated for their γ-Glu-Val-Gly producing abilities from Val-Gly. Each strain was cultivated in 50-ml tubes containing 10 ml of SD medium with 100 ppm Val-Gly as a final concentration. Tubes were inoculated by overnight culture of corresponding strain at initial OD600=0.01, and placed in rotation shaker at 240 rpm, 30° C. Cultivation time was for 20 hours. Then, cells from 2 ml of broth culture were harvested by centrifugation, and washed with 1 ml of milliQ water three times. Then, washed cells were suspended in 1 ml of milliQ and incubated at 70° C. for 10 min with a water bath to extract intracellular materials. After cell debris and the extract were separated by centrifugation, the aqueous phase was transferred to a clean vial and then the vial was vacuum-dried. Thus, the dried extract was prepared. Then γ-Glu-Val-Gly in the dried extract was measured with LC-MS/MS analysis as described in Example 12.

[2] = tested on: Saccharomyces cerevisiae S288C strain; assay: Addition of Val-Gly to the S288C strain in SDP medium, γ-Glu-Val-Gly in dry cells; assay type: cell-based; conditions: Val-Gly 100 ppm added to SDP medium in advance, culture 24 hours
Protocol: One loop of the S288C strain was inoculated into SDP medium (ammonium sulfate used for the preparation of the SD medium was replaced with proline, final concentration of proline was 0.1 g/L, 50 ml in a 500 ml-volume Sakaguchi flask), and cultured at 30° C. for 24 hours with shaking at a velocity of 120 rpm. Absorbance of the resulting culture broth was measured, the culture broth was inoculated into SDP medium (400 ml in a 2 L-volume conical flask with baffle fins, two or more flasks) so that OD660 was 0.01 at the start of the culture, and culture was performed at 30° C. for 24 hours with shaking by rotation at a velocity of 120 rpm. To the SDP medium, Val-Gly (purchased from Bachem) was added in advance to a final concentration of 100 ppm. Using the culture broth, the amount of γ-Glu-Val-Gly in dry cells was calculated in the same manner as that of Example 2.

## CC(C)[C@H](N)C(=O)NCC(=O)O [Val-Gly] (H-Val-Gly-OH)
[1]; strain S288C PADH1-HGT1
  γ-Glu-Val-Gly in the dried extract: 0.03 μg 1^−1 OD600^−1
[1]; strain S288C PADH1-PTR2
  γ-Glu-Val-Gly in the dried extract: 8.89 μg 1^−1 OD600^−1
[1]; strain S288C
  γ-Glu-Val-Gly in the dried extract: 0.04 μg 1^−1 OD600^−1
[2]
  γ-Glu-Val-Gly in dry cells: 2 ppm
